Experimental data from ChEMBL document CHEMBL2029201, “Synthesis of chalcone derivatives as potential anti-diabetic agents” (2012).

Each compound was assayed on 3T3-L1 (assay: Antidiabetic activity in mouse 3T3L1 cells assessed as […] from cell culture medium using 450 mg/dL D-glucose at 30 ug/mL after 24 hrs (reference value: 310 +/- 4 mg/dl)).
Assay type: functional
Work on `O=C(/C=C/c1ccccc1)c1cc(Cl)ccc1O` yielded an Activity of 236 mg/dL. In the case of `COc1ccc(/C=C/C(=O)c2ccccc2Cl)cc1`, the Activity is reported as 234 mg/dL. For `COc1ccc(/C=C/C(=O)c2cccc(Cl)c2)cc1`, the Activity was 287 mg/dL. With `COc1cccc(/C=C/C(=O)c2cccc(Cl)c2)c1` the Activity was 255 mg/dL. `COc1ccc(/C=C/C(=O)c2ccccc2Br)cc1` showed an Activity of 230 mg/dL. `O=C(/C=C/c1ccccc1)c1ccccc1I` was tested, and the Activity was 223 mg/dL. `COc1ccc(/C=C/C(=O)c2ccccc2I)cc1` was tested, and the Activity was 210 mg/dL. Work on `COc1cccc(/C=C/C(=O)c2ccccc2I)c1` yielded an Activity of 210 mg/dL. `O=C(/C=C/c1cccc(OCc2ccccc2)c1)c1cccc(I)c1` was tested, and the Activity was 238 mg/dL.
